The results in this text go back to patent publication US20230027361A1, “METTL3 MODULATORS” (priority 2019, published 2023).

Read-outs that look alike come from different tables or passages of the source.

Experiment [1] concerns the target METTL3/METTL14 (Homo sapiens, UniProt Q86U44). Put plainly: METTL3-14 Standard Enzyme Assay (METTL3 biochemical assay). A digest of the protocol: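 Tritium transfer from ³H-SAM (100 nM) to biotinylated RNA (100 nM) captured on streptavidin flashplates and counted by scintillation. Enzyme complex (2.5 nM) with compound, 5 min preincubation, 30 min reaction at ambient temperature, HEPES pH 7.5 buffer, stopped by excess unlabeled SAM.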

Experiment [2] deals with PRMT5-MEP50 (Homo sapiens, UniProt O14744). Put plainly: PRMT5 Assay (PRMT5 biochemical assay). The method, boiled down: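 Radiometric methyltransferase read-out: after 60 min reaction, excess unlabelled SAM (15 μM) stops turnover and biotinylated H4 peptide (100 nM) carrying 3H-methyl from 250 nM 3H-SAM is captured on streptavidin flashplates (2 h, 25° C) for scintillation counting. Enzyme, 2.5 nM PRMT5-MEP50, was preincubated 5 min with compound in pH 8.0 Tris buffer with DTT and Tween.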

The test system of experiment [3] is MOLM-13 cells. Description: MOLM-13 96 Hour Cell Proliferation Assay. Type of experiment: cell-based. The following applies: Homo sapiens. How it is done:
MOLM-13 (DSMZ) cells were seeded at 600 cells per well in a volume of 44 μL in a Greiner Bio-One CELLSTAR™ 384 Well Polystyrene Cell Culture clear bottom microplate in RPMI 1640 media containing 10% fetal bovine serum using a Multidrop Combi (ThermoFisher Scientific). Cells were incubated overnight at 37° C. in a humidified tissue culture incubator. To prevent evaporation or to reduce edge effect, add 50 μL or more H2O to an empty plate, cover, and place on top of the cell plates. The Mosquito® HTS Liquid Handler was used to make a compound/media intermediate plate by aliquoting 1 μL of compound from the initial compound dilution plate (concentrations ranging from 10.0 mM to 38.0 nM in 100% DMSO) into Bio-One 384-well polypropylene conical bottom microplate containing 49 μL of media containing the appropriate serum (50-fold dilution, 2% DMSO, compound concentrations ranging from 200.0 μM and […]). The Apricot liquid handling system was used to transfer 6.2 μL compounds from the intermediate plate into the seeding plate containing 44 μL cells (8-fold dilution spanning concentrations 25.0 μM to […], 0.25% DMSO final), and placed in a humidified tissue culture incubator at 37° C. After 96 hours, 25 μL of Cell Titer-Glo reagent (Promega) was added to each well using an Integra liquid handling system. The plate was protected from light using TopSeal-A (Black) film over the entire plate, added White Bottom seal film on the bottom of the entire plate for a better reading on the Envision, and placed on an IKA plate shaker for at 300 rpm for 10 minutes at room temperature. The plate was read on an EnVision plate reader (Perkin Elmer) using the Ultra Sensitive Luminescence protocol. Data analysis was performed by normalizing the raw luminescence units to an average of the positive control values for staurosporine (100% cell death) and the negative control values for DMSO (0% cell death). An IC50 was calculated using a 4-parameter logistic nonlinear regression model in GraphPad Prism.

For experiment [4], the target named is METTL1/WDR4 (Homo sapiens, UniProt Q9UBP6). Put plainly: METTL1 Assay (METTL1 biochemical assay). How it is done: Assays were performed in a 25 μl-volume in 384-well V-bottom polypropylene microplates (Greiner Bio-One, cat. No. 781280) at ambient temperature. Optimized 1× assay buffer was 20 mM HEPES pH 7.5, 50 mM KCl, 250 μM MgCl2, 1 mM DTT, 0.01% Tween, 0.01% BSG, 0.004 U/μl RNAseOUT (cat. No. 10777019, ThermoFisher Scientific, Waltham, Mass.). For compound screening METTL1/WDR4 (final concentration, f.c.=6.25 nM) was added using a Multidrop Combi (ThermoFisher Scientific, Waltham, Mass.) and preincubated for 5 min. Reactions were started by adding 3′ biotinylated RNA ([…]-biotin) (f.c.=25 nM) and 3H-SAM (f.c.=60 nM) substrates. Reactions proceeded for 20 minutes and were quenched with excess non-radioactive SAM (f.c.=15 μM). The reactions were then transferred to streptavidin-coated flashplates and incubated for 2 hours at 25° C. Following two washing cycles with 0.1% Tween-20, the plates were sealed and read on a TopCount (PerkinElmer, Waltham, Mass.) plate-based scintillation counter. For determination of kinetic parameters, reaction times were optimized so that measurements were taken during the initial velocity phase of the reaction.

Where [5] appears, read: read-out: METTL3 IC50, METTL3 biochemical assay.
The mark [6] stands for this setting: read-out: PRMT5 IC50, PRMT5 biochemical assay.
Where [7] appears, read: METTL3 biochemical assay, read-out: METTL3 IC50.
Where [8] appears, read: read-out: METTL1 IC50; METTL1 biochemical assay.
[9] abbreviates: PRMT5 biochemical assay, read-out: PRMT5 IC50.
Setting [10] is: METTL1 biochemical assay; read-out: METTL1 IC50.

METTL3/METTL14, sequence (Q86U44 whole entry, species assumed): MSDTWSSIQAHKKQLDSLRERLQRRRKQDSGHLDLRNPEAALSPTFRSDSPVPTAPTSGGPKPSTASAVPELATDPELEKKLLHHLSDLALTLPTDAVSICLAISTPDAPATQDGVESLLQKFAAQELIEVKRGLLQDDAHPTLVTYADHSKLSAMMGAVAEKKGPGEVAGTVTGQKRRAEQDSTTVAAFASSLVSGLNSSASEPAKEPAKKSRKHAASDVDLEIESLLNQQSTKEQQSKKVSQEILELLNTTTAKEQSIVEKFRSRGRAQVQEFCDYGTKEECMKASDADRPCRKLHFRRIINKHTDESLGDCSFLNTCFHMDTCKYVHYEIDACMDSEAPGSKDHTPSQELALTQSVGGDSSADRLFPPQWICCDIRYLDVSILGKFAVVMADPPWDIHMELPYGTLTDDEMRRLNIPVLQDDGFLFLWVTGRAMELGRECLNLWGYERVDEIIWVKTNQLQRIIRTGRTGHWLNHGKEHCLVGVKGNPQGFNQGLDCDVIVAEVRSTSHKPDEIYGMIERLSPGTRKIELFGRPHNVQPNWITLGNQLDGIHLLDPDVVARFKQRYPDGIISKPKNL
METTL3/METTL14, sequence (Q9HCE5 whole entry partner, species assumed): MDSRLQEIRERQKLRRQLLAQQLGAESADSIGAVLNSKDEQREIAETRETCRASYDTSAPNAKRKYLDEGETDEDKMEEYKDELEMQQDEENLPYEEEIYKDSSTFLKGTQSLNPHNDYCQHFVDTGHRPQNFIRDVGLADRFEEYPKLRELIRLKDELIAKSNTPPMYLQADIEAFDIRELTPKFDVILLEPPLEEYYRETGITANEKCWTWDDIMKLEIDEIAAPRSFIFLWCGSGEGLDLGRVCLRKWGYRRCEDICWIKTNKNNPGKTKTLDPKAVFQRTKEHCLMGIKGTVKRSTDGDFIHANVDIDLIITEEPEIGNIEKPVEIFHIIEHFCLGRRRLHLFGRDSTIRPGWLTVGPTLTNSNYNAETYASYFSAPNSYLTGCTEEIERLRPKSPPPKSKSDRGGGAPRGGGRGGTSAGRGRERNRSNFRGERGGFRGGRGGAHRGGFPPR
METTL1/WDR4, sequence (Q9UBP6 whole entry, species assumed): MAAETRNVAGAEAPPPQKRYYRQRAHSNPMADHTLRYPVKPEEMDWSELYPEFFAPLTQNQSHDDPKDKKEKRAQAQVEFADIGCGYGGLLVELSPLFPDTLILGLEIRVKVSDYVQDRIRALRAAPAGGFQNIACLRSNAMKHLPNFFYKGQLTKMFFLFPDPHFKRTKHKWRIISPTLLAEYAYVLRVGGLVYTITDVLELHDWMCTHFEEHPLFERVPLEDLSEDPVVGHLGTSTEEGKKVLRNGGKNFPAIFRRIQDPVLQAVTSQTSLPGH
METTL1/WDR4, sequence (P57081 whole entry partner, species assumed): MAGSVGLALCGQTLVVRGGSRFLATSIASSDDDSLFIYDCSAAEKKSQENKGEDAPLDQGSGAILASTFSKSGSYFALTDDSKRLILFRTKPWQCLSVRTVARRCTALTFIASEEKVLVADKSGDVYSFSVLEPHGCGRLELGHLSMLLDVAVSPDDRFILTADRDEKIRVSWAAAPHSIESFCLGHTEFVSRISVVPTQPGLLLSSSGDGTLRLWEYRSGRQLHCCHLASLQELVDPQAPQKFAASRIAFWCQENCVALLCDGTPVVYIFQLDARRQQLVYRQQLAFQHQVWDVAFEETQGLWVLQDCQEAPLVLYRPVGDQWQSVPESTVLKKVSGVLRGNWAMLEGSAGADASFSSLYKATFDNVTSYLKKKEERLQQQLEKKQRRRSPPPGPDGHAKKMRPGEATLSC
PRMT5-MEP50, sequence (O14744 whole entry): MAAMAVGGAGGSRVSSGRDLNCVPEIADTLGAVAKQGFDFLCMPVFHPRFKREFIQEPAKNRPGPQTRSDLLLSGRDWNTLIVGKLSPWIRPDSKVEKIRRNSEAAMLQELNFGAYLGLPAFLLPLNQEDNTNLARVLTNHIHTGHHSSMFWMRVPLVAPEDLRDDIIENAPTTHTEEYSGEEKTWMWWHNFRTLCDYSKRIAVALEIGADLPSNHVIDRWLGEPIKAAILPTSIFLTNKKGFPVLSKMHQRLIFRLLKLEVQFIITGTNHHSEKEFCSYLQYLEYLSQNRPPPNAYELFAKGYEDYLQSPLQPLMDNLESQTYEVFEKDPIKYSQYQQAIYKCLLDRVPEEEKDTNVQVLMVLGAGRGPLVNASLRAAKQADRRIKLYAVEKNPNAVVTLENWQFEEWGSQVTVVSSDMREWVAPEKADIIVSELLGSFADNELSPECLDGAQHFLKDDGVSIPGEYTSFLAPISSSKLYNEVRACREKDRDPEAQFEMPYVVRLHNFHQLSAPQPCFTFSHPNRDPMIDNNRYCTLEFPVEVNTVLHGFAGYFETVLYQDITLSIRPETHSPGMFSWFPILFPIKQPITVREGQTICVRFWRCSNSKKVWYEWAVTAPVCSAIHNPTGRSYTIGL
PRMT5-MEP50, sequence (Q9BQA1 whole entry partner): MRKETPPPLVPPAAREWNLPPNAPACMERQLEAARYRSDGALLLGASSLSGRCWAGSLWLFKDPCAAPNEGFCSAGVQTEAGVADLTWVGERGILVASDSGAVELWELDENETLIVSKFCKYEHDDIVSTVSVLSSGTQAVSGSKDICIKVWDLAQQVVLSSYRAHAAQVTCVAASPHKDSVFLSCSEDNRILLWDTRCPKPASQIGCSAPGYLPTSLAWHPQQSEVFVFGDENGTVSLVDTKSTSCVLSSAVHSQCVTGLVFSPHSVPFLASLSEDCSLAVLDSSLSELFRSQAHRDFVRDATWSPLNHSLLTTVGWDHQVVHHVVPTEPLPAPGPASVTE

Turning to `CNc1ccc2sc(CC[C@H]3O[C@@H](n4cc(-c5ccn(C)n5)c5c(N)ncnc54)[C@@H](F)[C@@H]3O)cc2n1` [I-190], the IC50 in experiment [1] is under 10 nM; in experiment [2] it was 10 to 100 nM; in experiment [3], under 1000 nM.
Take `CNc1ccc2ccc(OC[C@H]3O[C@@H](n4cc(-c5ccn(C(C)C)n5)c5c(N)ncnc54)[C@@H](F)[C@@H]3O)cc2n1` [I-2]: the IC50 in experiment [1] (setting [5]) is under 10 nM; in experiment [2] (setting [6]), 100 to 1000 nM; in experiment [3], under 1000 nM.
As for `Cn1ccc(-c2cn([C@@H]3O[C@H](COc4ccc5cnc(N6CCC6)nc5c4)[C@@H](O)[C@@H]3F)c3ncnc(N)c23)n1` [I-199], the IC50 was under 10 nM in experiment [1], over 1000 nM in experiment [2] and 1000 to 10000 nM in experiment [3].
In the same order, the values of `Cn1ccc(-c2cn([C@@H]3C[C@H](CCc4ccc5ccc(N6CCC6)nc5c4)[C@@H](O)[C@@H]3F)c3ncnc(N)c23)n1` [I-211] are under 10 nM, over 1000 nM and under 1000 nM.
Regarding `CNc1ccc2ccc(OC[C@H]3O[C@@H](n4cc(C5CCC(F)(F)CC5)c5c(N)ncnc54)[C@H](O)[C@@H]3O)cc2n1` [I-4], the half-maximal inhibitory concentration (IC50) in experiment [1] (setting [7]) is under 10 nM; in experiment [4] (setting [8]), over 1000 nM; in experiment [2] (setting [9]), 10 to 100 nM.
In the same order, the values of `CNc1ccc2ccc(OC[C@H]3O[C@@H](n4cc(C)c5c(N)ncnc54)[C@H](O)[C@@H]3O)cc2n1` [I-22] are over 1000 nM, over 1000 nM and 100 to 1000 nM.
For `Nc1ccc2ccc(CC[C@H]3C[C@@H](n4cc(Br)c5c(N)ncnc54)[C@H](O)[C@@H]3O)cc2n1` [I-107], in that order: 10 to 100 nM, over 1000 nM and under 10 nM.
With `Nc1ncnc2c1c(-c1ncco1)cn2[C@@H]1O[C@H](COc2ccc3ccc(N4CCC4)nc3c2)[C@@H](O)[C@@H]1F` [I-219], the IC50 in experiment [1] is under 10 nM; in experiment [2] it was over 1000 nM; in experiment [3], under 1000 nM.
Take `O[C@@H]1[C@@H](CCc2ccc3[nH]ncc3c2)C[C@@H](n2ccc3c(NCCc4ccccc4)ncnc32)[C@@H]1O` [I-89]: the IC50 is over 1000 nM in experiment [1] (setting [7]), over 1000 nM in experiment [4] (setting [8]) and 100 to 1000 nM in experiment [2] (setting [9]).
With `Cc1cc2c(N)ncnc2n1[C@@H]1C[C@H](CCc2ccc3nc(N)ccc3c2)[C@@H](O)[C@H]1O` [I-57], the figures for the IC50 in experiment [1] (setting [7]), in experiment [4] (setting [8]) and in experiment [2] (setting [9]) were over 1000 nM, over 1000 nM and 10 to 100 nM, respectively.
`CNc1ccc2ccc(OC[C@H]3O[C@@H](n4cc(-c5cn(C(C)C)cn5)c5c(N)ncnc54)[C@@H](F)[C@@H]3O)cc2n1` [I-233]: the IC50 in experiment [1] was 10 to 100 nM; in experiment [4] (setting [10]) it was over 1000 nM; in experiment [2], over 1000 nM.
In the case of `Nc1ncnc2c1ccn2[C@@H]1C[C@H](CCc2ccc3[nH]ncc3c2)[C@@H](O)[C@H]1O` [I-106], the IC50 is over 1000 nM in experiment [1] (setting [7]), over 1000 nM in experiment [4] (setting [8]) and 100 to 1000 nM in experiment [2] (setting [9]).
Turning to `CNc1ccc2cc(CC[C@H]3C[C@@H](n4cc(C)c5c(N)ncnc54)[C@H](O)[C@@H]3O)ccc2n1` [I-64], the values for the 50% inhibitory concentration (IC50) in experiment [1] (setting [7]), in experiment [4] (setting [8]) and in experiment [2] (setting [9]) were 100 to 1000 nM, over 1000 nM and 10 to 100 nM, respectively.
In the same order, the values of `CNC(=O)Nc1cccc(CC[C@H]2C[C@@H](n3ccc4c(N)ncnc43)[C@H](O)[C@@H]2O)c1` [I-99] are over 1000 nM, over 1000 nM and 100 to 1000 nM.
For the compound `Nc1ccc2ccc(CO[C@H]3C[C@@H](n4ccc5c(N)ncnc54)[C@H](O)[C@@H]3O)cc2n1` [I-139], the IC50 in experiment [1] (setting [7]) was under 10 nM; in experiment [4] (setting [8]), over 1000 nM; in experiment [2] (setting [9]), under 10 nM.
For `Cc1cn([C@@H]2O[C@H](COc3ccc4ccc(N)nc4c3)[C@@H](O)[C@H]2O)c2ncnc(N)c12` [I-15], the IC50 is over 1000 nM in experiment [1] (setting [7]), over 1000 nM in experiment [4] (setting [8]) and 100 to 1000 nM in experiment [2] (setting [9]).
For `Nc1ncnc2c1ccn2[C@@H]1C[C@H](CCc2ccc3cn[nH]c3c2)[C@@H](O)[C@H]1O` [I-103], the IC50 in experiment [1] (setting [7]) is over 1000 nM; in experiment [4] (setting [8]), over 1000 nM; in experiment [2] (setting [9]), 10 to 100 nM.
With `Nc1ncnc2c1ccn2[C@@H]1C[C@H](CCc2cccc(NC(=O)C3CC3)c2)[C@@H](O)[C@H]1O` [I-96], the IC50 was over 1000 nM in experiment [1] (setting [7]), over 1000 nM in experiment [4] (setting [8]) and 100 to 1000 nM in experiment [2] (setting [9]).
Turning to `CNc1ccc2ccc(OC[C@H]3O[C@@H](n4cc(-c5cc(C)n(C)n5)c5c(N)ncnc54)[C@@H](F)[C@@H]3O)cc2n1` [I-147], the IC50 in experiment [1] (setting [5]) was 10 to 100 nM; in experiment [4] (setting [10]) it was over 1000 nM; in experiment [2] (setting [6]), over 1000 nM.
Consider `Cc1cc2c(N)ncnc2n1[C@@H]1C[C@H](CCc2ccc3ccc(N)nc3c2)[C@@H](O)[C@H]1O` [I-65], for which the figures for the IC50 in experiment [1] (setting [7]), in experiment [4] (setting [8]) and in experiment [2] (setting [9]) were over 1000 nM, over 1000 nM and under 10 nM, respectively.
Turning to `Nc1ncnc2c1ccn2[C@@H]1C[C@H](CCc2ccc3ccc(NCCO)nc3c2)[C@@H](O)[C@H]1O` [I-105], the IC50 in experiment [1] (setting [7]) is 100 to 1000 nM; in experiment [4] (setting [8]) it was over 1000 nM; in experiment [2] (setting [9]), under 10 nM.
As to `COc1cccc(CC[C@H]2C[C@@H](n3ccc4c(N)ncnc43)[C@H](O)[C@@H]2O)n1` [I-114], the IC50 in experiment [1] (setting [7]), in experiment [4] (setting [8]) and in experiment [2] (setting [9]) was over 1000 nM each time.
Turning to `COCCN(C)C(=O)c1cn([C@@H]2O[C@H](COc3ccc4ccc(N5CCC5)nc4c3)[C@@H](O)[C@@H]2F)c2ncnc(N)c12` [I-217], the IC50 was 10 to 100 nM in experiment [1], over 1000 nM in experiment [2] and over 10000 nM in experiment [3].
On to `Nc1ncnc2c1ccn2[C@@H]1C[C@H](CCc2ccc3cncnc3c2)[C@@H](O)[C@H]1O` [I-127], for which the results for the IC50 in experiment [1] (setting [7]), in experiment [4] (setting [8]) and in experiment [2] (setting [9]) were over 1000 nM, over 1000 nM and under 10 nM, respectively.
For the compound `Nc1ccc2ccc(NC[C@H]3C[C@@H](n4ccc5c(N)ncnc54)[C@H](O)[C@@H]3O)cc2n1` [I-109], the results for the IC50 in experiment [1] (setting [7]), in experiment [4] (setting [8]) and in experiment [2] (setting [9]) were over 1000 nM, over 1000 nM and 10 to 100 nM, respectively.
For the compound `Nc1ncnc2c1ccn2[C@@H]1C[C@H](CCc2ccc3scnc3c2)[C@@H](O)[C@H]1O` [I-104], the IC50 in experiment [1] (setting [7]) was over 1000 nM; in experiment [4] (setting [8]), over 1000 nM; in experiment [2] (setting [9]) it was under 10 nM.
As to `CC(C)Nc1ccc2ccc(CC[C@H]3C[C@@H](n4ccc5c(N)ncnc54)[C@H](O)[C@@H]3O)cc2n1` [I-116], the IC50 is 10 to 100 nM in experiment [1] (setting [7]), over 1000 nM in experiment [4] (setting [8]) and under 10 nM in experiment [2] (setting [9]).
Take `Nc1ccc2ccc(OC[C@H]3C[C@@H](n4ccc5c(NCCc6ccccc6)ncnc54)[C@H](O)[C@@H]3O)cc2n1` [I-91]: the IC50 was over 1000 nM in experiment [1] (setting [7]), over 1000 nM in experiment [4] (setting [10]) and under 10 nM in experiment [2] (setting [9]).
For `Nc1ncnc2c1ccn2[C@@H]1C[C@H](CCc2cccc(=O)[nH]2)[C@@H](O)[C@H]1O` [I-113], the IC50 in experiment [1] (setting [7]) was over 1000 nM; in experiment [4] (setting [8]), over 1000 nM; in experiment [2] (setting [9]), 100 to 1000 nM.
